Source: patent publication US6686381B2, “Thiazole derivatives” (Hoffmann-La Roche Inc., priority 2002, dated 2004)
pIC50: −log10 of the molar value.

Target: T1, mouse NPY5-receptor (mNPY5) (Mus musculus, UniProt O70342)
T1 construct: The full-length cDNA encoding the mouse NPY5 (mNPY5) receptor was amplified from mouse brain cDNA; expressed in transfected cells; membranes used
T1 sequence (O70342 1-466): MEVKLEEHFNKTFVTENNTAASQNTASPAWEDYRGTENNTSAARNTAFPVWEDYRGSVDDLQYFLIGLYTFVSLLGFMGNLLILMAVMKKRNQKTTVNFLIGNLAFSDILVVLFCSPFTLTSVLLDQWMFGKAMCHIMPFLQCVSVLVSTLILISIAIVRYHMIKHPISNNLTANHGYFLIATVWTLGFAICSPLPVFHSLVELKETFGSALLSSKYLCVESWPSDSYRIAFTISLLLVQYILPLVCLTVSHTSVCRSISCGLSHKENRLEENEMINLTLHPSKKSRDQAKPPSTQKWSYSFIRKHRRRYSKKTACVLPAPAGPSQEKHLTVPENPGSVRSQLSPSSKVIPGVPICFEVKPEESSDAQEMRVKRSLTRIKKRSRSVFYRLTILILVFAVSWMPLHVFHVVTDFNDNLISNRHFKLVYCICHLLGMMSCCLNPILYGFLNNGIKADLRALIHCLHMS
Assay: Radioligand competition binding
Details: membranes of HEK293 cells expressing recombinant mNPY5; 100 pM [125I]labelled peptide YY; 1 h at 22° C.
From the text: Cloning of Mouse NPY5 Receptor cDNAs:
The full-length cDNA encoding the mouse NPY5 (mNPY5) receptor was amplified from mouse brain cDNA using specific primers, designed based on the published sequence, and Pfu DNA-Polymerase. The amplification product was subcloned into the mammalian expression vector pcDNA3 using EcoRI and XhoI restriction sites. Positive clones were sequenced and one clone, encoding the published sequence (see Borowsky, B., et al., Molecular biology and pharmacology of multiple NPY Y5 receptor species homologs, Regul. Pept. (1998) 75-76:45-53) was selected for generation of stable cell clones.
Human embryonic kidney 293 (HEK293) cells were transfected with 10 μg mNPY5 DNA using the lipofectamine reagent (Gibco BRL) according to the manufacturer's instruction. Two days after transfection, geneticin selection (1 mg/ml) was initiated and several stable clones were isolated. One clone was further used for pharmacological characterization.
Radioligand Competition Binding:
Human embryonic kidney 293 cells (HEK293), expressing recombinant mouse NPY5-receptor (mNPY5) were broken by three freeze/thawing cycles in hypotonic Tris buffer (5 mM, pH 7.4, 1 mM MgCl2), homogenized and centrifuged at 72,000×g for 15 min. […] Protein was determined according to the method of Lowry using bovine serum albumine (BSA) as a standard. […]

Row | Compound | pIC50
1 | O=C(c1ccccn1)c1cnc(NCCCNS(=O)(=O)c2ccccc2F)s1 [Example 1, 2-Fluoro-N-{3-[5-(pyridine-2-carbonyl)-thiazol-2-ylamino]-propyl}-benzenesulfonamide] | 8.27
2 | COc1ccc(C)cc1S(=O)(=O)NCCCNc1nc(C(=O)c2ccccc2C)cs1 [Example 140, 2-Methoxy-5-methyl-N-{3-[4-(2-methyl-benzoyl)-thiazol-2-ylamino]-propyl}-benzenesulfonamide] | 8.22
